Earlier results in patent US10155751B2, “Pyrazolyl-substituted heteroaryls and their use as medicaments” (Boehringer Ingelheim International GmbH, priority 2015, dated 2018).

Experiments:
[1] = tested on: platelet counts in patients with ITP; details: Podolanczuk et al, Blood (2009); cited from earlier work
Aurora B (AURB) = Aurora B (AURB) (Homo sapiens (Human), UniProt Q96GD4); details: Thoma et al, Bioorganic & Medicinal Chemistry Letters (2015); cited from earlier work
Aurora B (AURB), sequence (Q96GD4 whole entry): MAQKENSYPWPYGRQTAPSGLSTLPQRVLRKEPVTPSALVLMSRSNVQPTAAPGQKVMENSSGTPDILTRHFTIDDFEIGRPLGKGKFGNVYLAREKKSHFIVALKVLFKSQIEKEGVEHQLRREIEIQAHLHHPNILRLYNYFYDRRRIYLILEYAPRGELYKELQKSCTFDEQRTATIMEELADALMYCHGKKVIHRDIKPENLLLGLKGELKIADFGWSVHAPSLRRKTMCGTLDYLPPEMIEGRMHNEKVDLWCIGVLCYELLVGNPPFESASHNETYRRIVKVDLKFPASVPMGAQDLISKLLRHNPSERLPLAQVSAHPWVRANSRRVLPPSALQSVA

COc1cc(Nc2ncc(F)c(Nc3ccc4c(n3)N(COP(=O)(O)O)C(=O)C(C)(C)O4)n2)cc(OC)c1OC [Example R788]
platelet counts [1]: improved platelet counts

C[C@@H](Oc1cc(-c2cnn(C3CC3)c2)cc2nn(C)c(F)c12)[C@H]1CNC(=O)C1 [compound No. 5]
inhibition of Aurora B (AURB) (Aurora B (AURB)): inhibited Aurora B
